Reference: paper PMC7168327, “Designed Antimicrobial Peptides for Topical Treatment of Antibiotic Resistant Acne Vulgaris” (Antibiotics, 2020)
Values after ≈ are worked out from the molar mass of the structure shown. Square brackets hold non-standard residues; d marks the D form. Peptide text beside a SMILES is read from it. Orn = NCCC[C@H](N)C(=O)O

How the values were obtained:
C. acnes ATCC6919 = format: cell-based, Cutibacterium acnes; settings: ATCC6919, 48 h
Method: (§1) The ten antibiotic resistant C. acnes clinical isolates were acquired from BEI resources with the two reference strains obtained from American Type Culture Collection (ATCC, Manassas, VA, USA). C. acnes is a relatively slow-growing, typically aerotolerant anaerobic so all in vitro C. acnes experiments were performed under anaerobic conditions.
(§2) Single colonies were inoculated in Reinforced Clostridium Medium (RCM) broth supplemented with sodium thioglycolate and incubated at 37 °C, with shaking at 200 rpm, for 2 or 3 days to reach logarithmic growth (OD600nm = 1.0). Each C. acnes (1 × 10^6 CFU per mL) was incubated with dAMP or clindamycin at two-fold serial dilutions (0.5–32 μg per mL) in RCM on a 96-well microplate for 48 h. Three replicas were included for each test article concentration. Bacterial growth was measured by optical density at 600 nm to determine the MIC for each dAMP applied.

C. acnes ATCC11827 = format: cell-based, Cutibacterium acnes; settings: ATCC11827, 48 h
Method: as §1, §2

C. acnes HL043PA1 = format: cell-based, Cutibacterium acnes; settings: HL043PA1, 48 h
Method: as §1, §2

C. acnes HL045PA1 = format: cell-based, Cutibacterium acnes; settings: HL045PA1, 48 h
Method: as §1, §2

C. acnes HL082PA2 = format: cell-based, Cutibacterium acnes; settings: HL082PA2, 48 h
Method: as §1, §2

C. acnes HL038PA1 = format: cell-based, Cutibacterium acnes; settings: HL038PA1, 48 h
Method: as §1, §2

C. acnes HL043PA2 = format: cell-based, Cutibacterium acnes; settings: HL043PA2, 48 h
Method: as §1, §2

C. acnes HL007PA1 = format: cell-based, Cutibacterium acnes; settings: HL007PA1, 48 h
Method: as §1, §2

C. acnes HL053PA1 = format: cell-based, Cutibacterium acnes; settings: HL053PA1, 48 h
Method: as §1, §2

C. acnes HL072PA1 = format: cell-based, Cutibacterium acnes; settings: HL072PA1, 48 h
Method: as §1, §2

C. acnes HL013PA1 = format: cell-based, Cutibacterium acnes; settings: HL013PA1, 48 h
Method: as §1, §2

C. acnes HL056PA1 = format: cell-based, Cutibacterium acnes; settings: HL056PA1, 48 h
Method: as §1, §2

[1] = system: ten C. acnes clinical isolates and two C. acnes ATCC reference strains; format: cell-based, Cutibacterium acnes; settings: for in vitro anti-bacterial activity against the C. acnes bacterial strains (in words): 0.5–32 μg/mL concentration range evaluated; for MIC values against all C. acnes isolates: ten clinical isolates and two ATCC reference strains, 48 h
Method: as §1, §2

[2] = system: C. acnes HL043PA2 compared to human keratinocytes; format: cell-based; settings: 8 h
Method: In evaluating the clinical utility of each of the candidate dAMPs for C. acnes treatment, the Therapeutic Index was determined. The Therapeutic Index is defined as the ratio of concentration at which the dAMP is active against the prokaryotic C. acnes pathogen without inducing cytotoxic damage to the surrounding mammalian cells. The EC10 and EC50 doses, defined as the concentrations required to kill 10% and 50% respectively of human keratinocytes following 8 h incubation with each of the Riptide dAMPs, are tabulated and graphed in Table 2 and Figure 3, respectively. The larger the Therapeutic Index, the greater the specificity of the dAMP for destroying C. acnes cells.
as §2
(§3) Noninvasive and real-time monitoring of mammalian cytotoxicity to assess the potential skin toxicity of the dAMPs was evaluated using bioluminescent human immortalized keratinocytes (HaCaT, AddexBio, San Diego, CA, USA). The bioluminescent variant of HaCaT was constructed by transfection with a luciferase gene (RediFect Red-Fluc-Puromycin, Cat# CL596002). Keratinocytes (1 × 10^4 cells, 100 μL) were plated in 96-well black-walled plates. The candidate dAMPs were 2-fold serially diluted from 1024 µg/mL in growth medium supplemented with 150 µg/mL D-luciferin. Each concentration was performed in triplicate, with the final volume being 200 μL. Imaging was performed at select times (0, 15, and 30 min and 1, 3, 5, and 8 h) after the addition of the dAMP, and compared to concurrently run vehicle-control, using an IVIS Lumina imaging system (Caliper Life Sciences, Inc., Hopkinton, MA, USA). For imaging, the 96-well plate was positioned on the stage (12.5-cm field of view), with an open emission filter, binning of 4, and f-stop 1 and a 1-min exposure time. Data analysis was performed using the Living Image software program (version 4.3, Caliper Life Sciences, Inc.). The dAMP concentrations required to kill 10% and 50% of keratinocytes were determined using GraphPad Prism 7 (GraphPad Software, San Diego, CA, USA).

[3] = system: bioluminescent human immortalized keratinocytes (HaCaT); assay: Mammalian cytotoxicity, bioluminescent human keratinocytes; format: cell-based; settings: 8 h
Method: as §3

| MIC (C. acnes ATCC6919) [µg/mL] | MIC (C. acnes ATCC11827) [µg/mL] | MIC (C. acnes HL043PA1) [µg/mL] | MIC (C. acnes HL045PA1) [µg/mL] | MIC (C. acnes HL082PA2) [µg/mL] | MIC (C. acnes HL038PA1) [µg/mL] | MIC (C. acnes HL043PA2) [µg/mL] | MIC (C. acnes HL007PA1) [µg/mL] | MIC (C. acnes HL053PA1) [µg/mL] | MIC (C. acnes HL072PA1) [µg/mL] | MIC (C. acnes HL013PA1) [µg/mL] | MIC (C. acnes HL056PA1) [µg/mL] | MIC values against all C. acnes isolates [1] [µg/mL] | Structure (SMILES) | in vitro anti-bacterial activity against the C. acnes bacterial strains (in words) [1] | Therapeutic Index (EC10 / MIC) [2] | Therapeutic Index (EC50 / MIC) [2] | EC50, concentration required to kill 50% of human keratinocytes [3] [µg/mL] |
| --- | --- | --- | --- | --- | --- | --- | --- | --- | --- | --- | --- | --- | --- | --- | --- | --- | --- |
| 2 (≈ 0.755 µM) | 8 (≈ 3.02 µM) | 4 (≈ 1.51 µM) | 4 (≈ 1.51 µM) | 2 (≈ 0.755 µM) | 4 (≈ 1.51 µM) | 8 (≈ 3.02 µM) | 4 (≈ 1.51 µM) | 4 (≈ 1.51 µM) | 8 (≈ 3.02 µM) | 4 (≈ 1.51 µM) | 4 (≈ 1.51 µM) | 2 to 8 | C[C@H](NC(=O)[C@H](Cc1ccccc1)NC(=O)[C@H](C)NC(=O)[C@H](Cc1ccccc1)NC(=O)[C@H](CCCN)NC(=O)[C@H](C)NC(=O)[C@H](Cc1ccccc1)NC(=O)[C@H](CCCN)NC(=O)[C@H](CCCN)NC(=O)[C@H](C)NC(=O)[C@H](Cc1ccccc1)NC(=O)[C@H](CCCN)NC(=O)[C@H](CCCN)NC(=O)[C@H](Cc1ccccc1)NC(=O)[C@H](CCCN)NC(=O)[C@H](CCCN)NC(=O)[C@H](C)NC(=O)[C@H](Cc1ccccc1)NC(=O)[C@H](CCCN)NC(=O)[C@H](CCCN)NC(=O)[C@H](C)NC(=O)[C@@H](N)Cc1ccccc1)C(=O)N[C@@H](Cc1ccccc1)C(N)=O [RP444] (H-FA[Orn][Orn]FA[Orn][Orn]F[Orn][Orn]FA[Orn][Orn]FA[Orn]FAFAF-NH2) | most active | 1.63 | 2.5 | 20 |
| 2 (≈ 0.714 µM) | 2 to 4 | 2 (≈ 0.714 µM) | 2 (≈ 0.714 µM) | 2 (≈ 0.714 µM) | 2 (≈ 0.714 µM) | 2 (≈ 0.714 µM) | 2 (≈ 0.714 µM) | 2 (≈ 0.714 µM) | 2 to 4 | 2 (≈ 0.714 µM) | 2 (≈ 0.714 µM) | 2 to 8 | CC[C@H](C)[C@H](NC(=O)[C@H](Cc1ccccc1)NC(=O)[C@H](CCCN)NC(=O)[C@H](CCCCN)NC(=O)[C@H](Cc1ccccc1)NC(=O)[C@H](CCCN)NC(=O)[C@H](CCCCN)NC(=O)[C@H](C)NC(=O)[C@H](Cc1ccccc1)NC(=O)[C@H](CCCCN)NC(=O)[C@H](CCCN)NC(=O)[C@@H](NC(=O)[C@@H](N)Cc1ccccc1)[C@@H](C)CC)C(=O)N[C@@H](CCCN)C(=O)N[C@@H](CCCCN)C(=O)N[C@@H](Cc1ccccc1)C(=O)N[C@@H](C)C(=O)N[C@@H](CCCCN)C(=O)N[C@@H](Cc1ccccc1)C(=O)N[C@@H](C)C(=O)N[C@@H](Cc1ccccc1)C(=O)N[C@@H](C)C(=O)N[C@@H](Cc1ccccc1)C(N)=O [RP551] (H-FI[Orn]KFAK[Orn]FK[Orn]FI[Orn]KFAKFAFAF-NH2) | most active | 8.3 | 17.2 | 34.3 |
| 8 (≈ 3.86 µM) | 16 (≈ 7.72 µM) | 16 (≈ 7.72 µM) | 16 (≈ 7.72 µM) | 16 (≈ 7.72 µM) | 16 (≈ 7.72 µM) | 16 (≈ 7.72 µM) | 16 (≈ 7.72 µM) | 16 (≈ 7.72 µM) | 16 (≈ 7.72 µM) | 8 (≈ 3.86 µM) | 16 (≈ 7.72 µM) |  | CC[C@H](C)[C@H](NC(=O)[C@H](CCCCN)NC(=O)[C@H](CC(C)C)NC(=O)[C@H](CCCN)NC(=O)[C@H](CC(C)C)NC(=O)[C@H](CCCNC(=N)N)NC(=O)[C@H](C)NC(=O)[C@H](CCCNC(=N)N)NC(=O)[C@@H](NC(=O)[C@H](CCCN)NC(=O)[C@H](Cc1ccccc1)NC(=O)[C@H](CCCNC(=N)N)NC(=O)[C@H](C)NC(=O)[C@H](CCCCN)NC(=O)[C@@H](NC(=O)[C@H](CCCN)NC(=O)[C@@H](N)Cc1ccccc1)[C@@H](C)CC)C(C)C)C(N)=O [RP553] (H-F[Orn]IKARF[Orn]VRARL[Orn]LKI-NH2) | modest anti-bacterial activity |  | 16.8 | 268 |
| 4 (≈ 2.12 µM) | 8 (≈ 4.25 µM) | 4 (≈ 2.12 µM) | 4 (≈ 2.12 µM) | 8 (≈ 4.25 µM) | 8 (≈ 4.25 µM) | 8 (≈ 4.25 µM) | 4 (≈ 2.12 µM) | 4 (≈ 2.12 µM) | 8 (≈ 4.25 µM) | 2 to 4 | 4 (≈ 2.12 µM) | 2 to 8 | CC[C@H](C)[C@H](NC(=O)[C@H](CCCN)NC(=O)[C@H](C)NC(=O)[C@H](CCCN)NC(=O)[C@H](CC(C)C)NC(=O)[C@H](CCCN)NC(=O)[C@@H](NC(=O)[C@H](CCCN)NC(=O)[C@@H](NC(=O)[C@H](CCCN)NC(=O)[C@H](C)NC(=O)[C@H](CCCN)NC(=O)[C@H](CC(C)C)NC(=O)[C@H](CCCN)NC(=O)[C@@H](N)Cc1ccccc1)[C@@H](C)CC)C(C)C)C(=O)N[C@@H](CCCN)C(=O)N[C@@H](CC(C)C)C(N)=O [RP554] (H-F[Orn]L[Orn]A[Orn]I[Orn]V[Orn]L[Orn]A[Orn]I[Orn]L-NH2) | most active | 2.38 | 3.88 | 31 |
